From patent US20030175350A1, “Enteric preparations containing physiologically active peptides” (priority 2000, published 2003)

Assays:
[1] = Absorbability of compound (1) in cynomolgus monkey by oral administration of tablets; format: in vivo
Source text: Blood was periodically collected, plasma was isolated, and then plasma concentration of unchanged was quantified with HPLC.

[2] = rat, in vivo, po; cited from earlier work

| Oral absorbability compared to rat and mouse [1] | Tmax compared to rat and mouse [1] | SMILES | bioavailability [2] [%] |
| --- | --- | --- | --- |
| decreased absorbability | markedly delayed Tmax | C[C@@H]1OC(=O)NC1C(=O)N[C@@H](Cc1cscn1)C(=O)N1CCC[C@H]1C (stereo partly drawn) [compound (1)] | – |
| – | – | CN1C(=O)C[C@@H](C(=O)N[C@@H](Cc2c[nH]cn2)C(=O)N2CCC[C@H]2C(N)=O)NC1=O [taltirelin] | 3.9 |
